# In US6867211B2, “4-Pyridyl-and 2,4-pyrimidinyl-substituted pyrrole derivatives and their use in pharmacy” (Merckle GmbH, priority 2000, dated 2005):
# Like-named read-outs stand apart in the source and are kept apart here.
# Assays:
# TNFα [1] = assay: In vitro test procedure using PBMCs, LPS-stimulated, TNFα by ELISA; format: cell-based; settings: Homo sapiens, PBMC; for inhibition at 1 µM: at 1 μmol; for inhibition at 10 µM: at 10 μmol
# Protocol: (§1) In vitro Test Procedure Using PBMCs
# (§2) The mononuclear cells (PBMCs) are isolated from human potassium-EDTA whole blood diluted 1:3 by means of density gradient centrifugation (Histopaque®-1.077). After 2 washing steps with DPBS buffer, the mononuclear cells are resuspended in macrophage-SFM medium and adjusted to a cell count of 1×10^6 cells/ml.
# (§3) The PBMCs suspension (at 390 μl) is preincubated with test substance for 15 min at 37° C. in a CO2 incubator (5% CO2; 95% moisture-saturated air). The samples are subsequently stimulated for 4 hours with 1 μg/ml LPS (E.coli 026:B6) at 37° C. in a CO2 incubator (5% CO2, 95% moisture-saturated air). The reaction is ended by placing the samples on ice, addition of DPBS buffer and centrifugation (15880×g; 12 min). The supernatant is used for the quantification of IL-1β and TNFα by means of ELISA.
# [2] = target: T1, COX2 (from sheep placenta) (Ovis aries, UniProt P79208); assay: In vitro test system for determining the inhibition of cyclooxygenase-2 (COX2 from sheep placenta, PGE2 ELISA); format: biochemical; settings: read-out: COX-2 IC50
# T1 construct: COX2 (from sheep placenta) is preincubated at 4° C. with test substance for 10 min; from tissue; host or cells: sheep placenta
# T1 sequence (P79208 17-603): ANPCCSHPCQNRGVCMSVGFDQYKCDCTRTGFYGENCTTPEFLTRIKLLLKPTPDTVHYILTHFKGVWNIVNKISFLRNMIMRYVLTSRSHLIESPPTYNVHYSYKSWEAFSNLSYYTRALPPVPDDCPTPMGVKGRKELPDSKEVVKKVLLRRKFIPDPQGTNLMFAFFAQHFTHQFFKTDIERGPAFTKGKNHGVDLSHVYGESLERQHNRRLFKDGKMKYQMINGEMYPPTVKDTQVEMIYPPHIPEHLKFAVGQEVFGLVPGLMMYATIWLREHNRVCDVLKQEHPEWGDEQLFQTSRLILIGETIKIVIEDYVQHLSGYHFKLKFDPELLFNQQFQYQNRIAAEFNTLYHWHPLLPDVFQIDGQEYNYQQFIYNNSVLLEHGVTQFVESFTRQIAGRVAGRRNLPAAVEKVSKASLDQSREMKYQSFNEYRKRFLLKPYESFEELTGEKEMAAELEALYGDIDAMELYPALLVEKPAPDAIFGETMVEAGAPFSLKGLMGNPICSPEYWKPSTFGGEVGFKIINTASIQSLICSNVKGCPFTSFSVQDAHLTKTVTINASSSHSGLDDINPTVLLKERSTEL
# Protocol: In vitro Test System for Determining the Inhibition of Cyclooxygenase-2
# COX2 (from sheep placenta) is preincubated at 4° C. with test substance for 10 min, then stimulated with arachidonic acid (5 μM) at 25° C. for 10 min. […] The determination is carried out at 3 dilutions (10^−7, 10^−6, 10^−5 M). The PGE2 concentrations are quantified by means of ELISA (see Mitchell J. A. et al., Proc. Nat. Acad. Sci. 90: 11693-11697 (1993)).
# 5-lipoxygenase = target: T2, 5-lipoxygenase (Homo sapiens, UniProt P09917); assay: In vitro test system for determining the inhibition of 5-lipoxygenase (LTB4 from human granulocytes, A 23187, ELISA); format: cell-based; settings: human granulocytes; read-out: 5-LO IC50
# T2 construct: Human granulocytes are used as a source of the 5-lipoxygenase; endogenous in cells; host or cells: human granulocytes isolated from heparinised blood on a Percoll gradient
# T2 sequence (P09917 1-674): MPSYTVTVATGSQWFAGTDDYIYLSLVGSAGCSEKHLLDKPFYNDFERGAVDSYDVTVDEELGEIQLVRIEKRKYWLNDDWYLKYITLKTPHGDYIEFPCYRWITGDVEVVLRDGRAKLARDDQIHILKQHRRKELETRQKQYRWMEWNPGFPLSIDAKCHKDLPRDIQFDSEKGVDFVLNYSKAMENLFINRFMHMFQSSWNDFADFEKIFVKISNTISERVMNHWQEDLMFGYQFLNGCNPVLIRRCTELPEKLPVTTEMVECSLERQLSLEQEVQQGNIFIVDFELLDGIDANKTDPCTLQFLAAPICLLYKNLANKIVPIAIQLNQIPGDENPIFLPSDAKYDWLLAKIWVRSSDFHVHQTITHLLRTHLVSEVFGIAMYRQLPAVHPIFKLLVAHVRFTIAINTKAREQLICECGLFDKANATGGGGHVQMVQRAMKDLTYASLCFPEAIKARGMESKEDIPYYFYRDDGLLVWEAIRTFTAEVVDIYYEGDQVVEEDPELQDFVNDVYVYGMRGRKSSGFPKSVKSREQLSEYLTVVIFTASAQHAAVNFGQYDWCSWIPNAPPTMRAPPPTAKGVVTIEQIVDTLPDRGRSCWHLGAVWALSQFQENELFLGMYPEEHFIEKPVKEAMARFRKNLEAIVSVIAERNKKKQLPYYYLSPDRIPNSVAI
# Protocol: In vitro Test System for Determining the Inhibition of 5-lipoxygenase
# Human granulocytes are used as a source of the 5-lipoxygenase. LTB4 (leukotriene B4) is formed from endogenous arachidonic acid by means of stimulation with calcium ionophore A 23187. The granulocytes are isolated and the enzyme reaction is carried out according to known processes (see Arch. Pharm. Pharm. Med. Chem. 330, 307-312 (1997)).
# The blood, which is protected from clotting with heparin, is centrifuged on a discontinuous Percoll® gradient and the granulocyte layer is pipetted off. After lysis of the erythrocytes, the granulocytes are washed a number of times and then adjusted to a specific cell count. The enzyme reaction is then started with calcium ionophore A 23187 in the presence or absence of the test substance after addition of Ca2+. The synthesis of the leukotrienes is stopped after 1.5 minutes. The samples are centrifuged off and the supernatant is diluted. LTB4 is determined quantitatively by means of ELISA.
# IL-1β [3] = assay: In vitro test procedure using PBMCs, LPS-stimulated, IL-1β by ELISA; format: cell-based; settings: Homo sapiens, PBMC
# Protocol: as §1, §2, §3
# TNFα [4] = assay: In vitro test procedure using human whole blood, LPS-stimulated, TNFα by ELISA; format: cell-based; settings: Homo sapiens; whole-blood method
# Protocol: (§4) In vitro Test Procedure Using Human Whole Blood
# (§5) Human potassium-EDTA whole blood (at 400 μl) is preincubated with test substance for 15 min. at 37° C. in a CO2 incubator (5% CO2; 95% moisture-saturated air). The samples are then stimulated for 4 hours with 1 μg/ml of LPS (E. coli 026:B6) at 37° C. in a CO2 incubator (5% CO2; 95% moisture-saturated air). The reaction is ended by placing the samples on ice, addition of DPBS buffer and subsequent centrifugation (1000×g; 15 min). The plasma supernatant is used for the quantification of IL-1β and TNFα by means of ELISA.
# IL-1β [5] = assay: In vitro test procedure using human whole blood, LPS-stimulated, IL-1β by ELISA; format: cell-based; settings: Homo sapiens; whole-blood method
# Protocol: as §4, §5
# cyclooxygenase-1 = target: T3, cyclooxygenase-1 (Homo sapiens, UniProt P23219); assay: In vitro test system for determining the inhibition of cyclooxygenase-1 (PGE2 from human platelets, calcium ionophore, ELISA); format: cell-based; settings: for IC50: human platelets, read-out: COX-1 IC50
# T3 construct: endogenous in cells; host or cells: human platelets isolated on a discontinuous Percoll gradient
# Protocol: In vitro Test System for Determining the Inhibition of Cyclooxygenase-1
# In this test system, the amount of prostaglandin E2 formed from human platelets after addition of calcium ionophore is determined by means of ELISA. In this process, the platelets are obtained after centrifugation on a discontinuous Percoll® gradient. The enzyme reaction and the determination of the metabolites formed is carried out in principle as in the determination of 5-lipoxygenase inhibition. Differences exist with respect to the incubation time. Furthermore, the addition of a thromboxane synthesis inhibitor is necessary (see Arch. Pharm. Pharm. Med. Chem. 330, 307-312 (1997)).
# [6] = target: T1, COX2 (from sheep placenta); assay: In vitro test system for determining the inhibition of cyclooxygenase-2 (COX2 from sheep placenta, PGE2 ELISA); format: biochemical; settings: for IC50: value in COX-2 column
# [7] = 4 h, read-out: TNFα percentage inhibition
# [8] = at 10 μmol, cells marked 'PBMC:' / 'whole-blood method:'
# T3 sequence (P23219 24-599): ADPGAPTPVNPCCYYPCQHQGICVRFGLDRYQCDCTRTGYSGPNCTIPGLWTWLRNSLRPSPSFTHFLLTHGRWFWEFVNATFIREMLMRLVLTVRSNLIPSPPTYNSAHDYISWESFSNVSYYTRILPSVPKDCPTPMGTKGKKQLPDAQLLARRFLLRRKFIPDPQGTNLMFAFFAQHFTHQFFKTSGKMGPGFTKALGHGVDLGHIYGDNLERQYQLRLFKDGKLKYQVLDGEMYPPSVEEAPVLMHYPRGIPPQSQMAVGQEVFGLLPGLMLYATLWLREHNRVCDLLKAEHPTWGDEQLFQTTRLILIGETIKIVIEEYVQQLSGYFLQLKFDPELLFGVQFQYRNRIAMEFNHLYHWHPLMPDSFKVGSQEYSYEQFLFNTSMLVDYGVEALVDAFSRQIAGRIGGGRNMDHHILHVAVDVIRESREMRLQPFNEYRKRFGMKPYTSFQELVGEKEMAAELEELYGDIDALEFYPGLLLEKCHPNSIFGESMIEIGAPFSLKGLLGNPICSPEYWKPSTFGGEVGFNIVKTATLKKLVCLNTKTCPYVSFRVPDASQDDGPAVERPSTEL
Structure (SMILES),IC50 (TNFα [1]) [µM],IC50 [2] [µM],IC50 (5-lipoxygenase) [nM],IC50 (IL-1β [3]) [µM],IC50 (TNFα [4]) [µM],IC50 (IL-1β [5]) [µM],IC50 (cyclooxygenase-1) [nM],COX-1 percentage inhibition (cyclooxygenase-1; at 10 μmol),"COX-2 percentage inhibition [6, 8] [%]",IC50 ([6]; cell marked 'PBMC:') [µM],IC50 ([6]; cell marked 'whole-blood method:') [µM],COX-1 percentage inhibition (cyclooxygenase-1; at 1.0 μmol) [%],"COX-2 percentage inhibition ([6]; at 1 μmol, cell marked 'PBMC:') [%]","inhibition at 0.1 µM (TNFα [1]; 4 h, at 0.1 μmol, read-out: TNFα percentage inhibition) [%]",inhibition at 1 µM (TNFα [1]; [7]) [%],inhibition at 10 µM (TNFα [1]; [7]) [%],"inhibition at 1 µM (IL-1β [3]; 4 h, at 1 μmol, read-out: IL-1β percentage inhibition) [%]"
"Fc1ccc(-c2c(-c3ccncc3)cc3n2CCCC3)cc1 [Example 18, 3-(4-Fluorophenyl)-2-(4-pyridyl)-5,6,7,8-tetrahydroindolizine]",–,1.6,3300,7.5,37,36,–,10/35%,–,–,–,–,–,16,33,65,–
"Cc1c(-c2ccc(F)cc2)c(-c2ccncc2)n2c1CCC2 [Example 21, 6-(4-Fluorophenyl)-7-methyl-5-(4-pyridyl)-2,3-dihydro-1H-pyrrolizine]",26,–,–,5.6,–,37,130,–,33,0.34,6,–,–,–,–,–,–
"CC1(C)CSc2c(-c3ccncc3)c(-c3ccc(F)cc3)cn2C1 [Example 23, 7-(4-Fluorophenyl)-3,3-dimethyl-8-pyridin-4-yl-3,4-dihydro-2H-pyrrolo[2,1-b][1,3]thiazine]",–,–,50,–,–,–,3500,83%,50,4,–,0,10,–,0,79,19

# The remaining molecules from weak to strong by IC50 (5-lipoxygenase), led by results:
IC50 (TNFα [1]) [µM],IC50 [2] [µM],IC50 (5-lipoxygenase) [nM],IC50 (IL-1β [3]) [µM],IC50 (TNFα [4]) [µM],IC50 (IL-1β [5]) [µM],IC50 (cyclooxygenase-1) [nM],COX-1 percentage inhibition (cyclooxygenase-1; at 10 μmol),"COX-2 percentage inhibition [6, 8] [%]",IC50 ([6]; cell marked 'PBMC:') [µM],IC50 ([6]; cell marked 'whole-blood method:') [µM],COX-1 percentage inhibition (cyclooxygenase-1; at 1.0 μmol) [%],"COX-2 percentage inhibition ([6]; at 1 μmol, cell marked 'PBMC:') [%]",Structure (SMILES),"inhibition at 0.1 µM (TNFα [1]; 4 h, at 0.1 μmol, read-out: TNFα percentage inhibition) [%]",inhibition at 1 µM (TNFα [1]; [7]) [%],inhibition at 10 µM (TNFα [1]; [7]) [%],"inhibition at 1 µM (IL-1β [3]; 4 h, at 1 μmol, read-out: IL-1β percentage inhibition) [%]"
4,5.7,3700,5,28,22,–,–,–,–,–,–,–,"OCc1c(-c2ccncc2)c(-c2ccc(F)cc2)n2c1CCC2 [Example 3, [3-(4-Fluorophenyl)-2-(4-pyridyl)-6,7-dihydro-5H-pyrrolizin-1-yl]methanol]",–,–,–,–
6,3.4,2400,5.7,41,59,1900,–,–,–,–,–,–,"Cc1c(-c2ccncc2)c(-c2ccc(F)cc2)n2c1CCC2 [Example 4, 5-(4-Fluorophenyl)-7-methyl-6-(4-pyridyl)-2,3-dihydro-1H-pyrrolizine]",–,–,–,–
10,6.1,65,> 100,30,30,3400,–,–,–,–,–,–,"CCOC(=O)c1c(-c2ccncc2)c(-c2ccc(F)cc2)n2c1SCC2 [Example 10A, Ethyl 5-(4-fluorophenyl)-6-(4-pyridyl)-2,3-dihydropyrrolo-[2,1-b]-thiazole-7-carboxylate]",–,–,–,–
